Key:
Type in all cases: in vivo, human
[1] = system: caspase-driven cell death (cCK18, caspase 3/7, flCK18); assay: Phase 2 clinical trial in liver cirrhosis: mechanism-based biomarkers (cCK18, caspase 3/7, flCK18); details: overall patient population
Procedure: (§1) A double-blind, placebo-controlled Phase 2 clinical trial was conducted at 26 U.S. sites and enrolled 86 patients with liver cirrhosis due to different etiologies, mild to moderate liver impairment as determine by Child Pugh classification and baseline MELD scores of 11 to 18. Patients were randomized 1:1 to receive either 25 mg of emricasan (IDN-6556) or placebo orally twice daily for three months. Endpoints included a change from baseline in cCK18 and changes from baseline in MELD and Child-Pugh scores, which are composite scores of laboratory parameters associated with liver synthetic and excretory function, such as serum albumin levels, international normalized ratio (INR) and total bilirubin levels.
(§2) Among the 86 subjects enrolled and receiving study drug, liver cirrhosis etiologies included alcohol (39%), hepatitis C virus (29%), non-alcoholic steatohepatitis, or NASH (23%), and other causes (9%). Baseline MELD scores were […] in 78% of enrolled subjects and >15 in 22% of enrolled subjects. Baseline Child-Pugh status was A in 43% of subjects and B in 56% of subjects.

[2] = system: patients with liver cirrhosis; assay: Phase 2 clinical trial in liver cirrhosis: liver function (MELD score, Child-Pugh score, total bilirubin, INR, albumin); details: for INR Change at Month 3 / Total bilirubin Change at Month 3 / Albumin Change at Month 3 / Child-Pugh score Change at Month 3 / MELD score Change at Month 3: 25 mg orally twice daily, three months, LOCF
Procedure: as §1, §2
The overall trends were driven by statistically significant improvements in MELD and Child-Pugh scores in a high medical need subgroup of patients with baseline MELD scores ≥15, the established prerequisite for listing a patient for liver transplant.

[3] = system: patients with liver cirrhosis; assay: Phase 2 clinical trial in liver cirrhosis: common indicators of liver damage (ALT, AST); details: overall patient population
Procedure: as §1, §2

[4] = baseline MELD ≥15 subgroup, after three months of treatment, placebo two of ten

`C[C@H](NC(=O)C(=O)Nc1ccccc1C(C)(C)C)C(=O)N[C@@H](CC(=O)O)C(=O)COc1c(F)c(F)cc(F)c1F` [Emricasan, (3S)-3-[N—(N′-(2-tert-Butylphenyl) Oxamyl)Alaninyl]Amino-5-(2′,3′,5′,6′-Tetrafluorophenoxy)-4-Oxopentanoic Acid] was tested, and the “other mechanism-based biomarkers (caspase 3/7, flCK18)” value [1] was “positive changes”, the “cCK18 Change at Month 3” value ([1]; N = 44, 25 mg orally twice daily for three months, last observation carried forward, baseline 289 U/L (geometric mean), p 0.04 vs placebo) was −4.6% and the “flCK18 Change at Month 3” value ([1]; N = 44, 25 mg orally twice daily, three months, LOCF, baseline 714 U/L, p 0.005 vs placebo) was −18%. The “Caspase 3/7 Change at Month 3” value ([1]; N = 44, 25 mg orally twice daily, three months, LOCF, baseline 2656 RLU, p <0.0001 vs placebo) was −45.5%, the “caspase-cleaved cytokeratin 18 (cCK18) vs. placebo” value ([1]; adjusted for baseline MELD score and disease etiology, p=0.04) was “statistically significant reduction” and the “INR Change at Month 3” value ([2]; baseline MELD score ≥15 patient population, N = 9, baseline 1.54, p 0.0004 vs placebo) was −0.14. The “Total bilirubin Change at Month 3” value ([2]; baseline MELD score ≥15 patient population, N = 9, baseline 3.17, p 0.03 vs placebo) was -0.55 mg/dL, the “Albumin Change at Month 3” value ([2]; baseline MELD score ≥15 patient population, N = 9, baseline 3.41, p 0.78 vs placebo) was “+0.07 g/dL” and the “Child-Pugh score Change at Month 3” value ([2]; baseline MELD score ≥15 patient population, N = 9, baseline 7.8, p 0.003 vs placebo) was −0.6. The “MELD score Change at Month 3” value ([2]; baseline MELD score ≥15 patient population, N = 9, baseline 16.0, p 0.003 vs placebo) was −1.6, the “patients with an increase in Child-Pugh score” value ([2]; baseline MELD ≥15 subgroup, after three months of treatment, placebo four out of ten (at least one point increase)) was “none of nine” and the “patients who achieved a reduction in MELD score to below 14” value ([2]; baseline MELD ≥15 subgroup, after three months of treatment, placebo one out of ten) was “Four of nine”. The “patients who achieved at least a 2 point reduction in MELD score” value [2, 4] was “Six of nine”, the “patients with at least a one point reduction in Child Pugh score” value [2, 4] was “Four of nine” and the “INR Change at Month 3” value ([2]; overall patient population, N = 44, baseline 1.33, p 0.12 vs placebo) was −0.02. The “Total bilirubin Change at Month 3” value ([2]; overall patient population, N = 44, baseline 2.25, p 0.19 vs placebo) was -0.05 mg/dL, the “Albumin Change at Month 3” value ([2]; overall patient population, N = 44, baseline 3.46, p 0.38 vs placebo) was “+0.02 g/dL” and the “Child-Pugh score Change at Month 3” value ([2]; overall patient population, N = 44, baseline 6.9, p 0.10 vs placebo) was −0.2. For the same compound, the “MELD score Change at Month 3” value ([2]; overall patient population, N = 44, baseline 12.8, p 0.50 vs placebo) was −0.1, the “common indicators of liver damage (ALT, AST)” value [3] was “positive changes” and the “ALT Change at Month 3 (median change)” value ([3]; N = 44, 25 mg orally twice daily, three months, LOCF, baseline 27.5, p 0.03 vs placebo) was −3.0 U/L. For the same compound, the “AST Change at Month 3 (median change)” value ([3]; N = 44, 25 mg orally twice daily, three months, LOCF, baseline 50.0, p 0.08 vs placebo) was −5.0 U/L.

Source: patent US20190022043A1, “METHODS OF USING CASPASE INHIBITORS IN TREATMENT OF LIVER DISEASE” (Conatus Pharmaceuticals Inc., priority 2015, published 2019)
